Assays:
[1] = system: Myzus persicae resistant to organophosphorous agents and carbamates; assay: Test against Myzus persicae resistant to organophosphorous agents and carbamates (spray on eggplant seedlings); format: in vivo; conditions: 100 ppm concentration of the effective component; 7 days after spraying; green house of 28° C.
Description: About 30 bred Myzus persicae resistant to organophosphorous agents and carbamates were inoculated per 1 seedling of eggplant planted in a vinyl pot of 6 cm diameter. One day after the inoculation, a sufficient amount of a diluted aqueous solution of a prescribed concentration of an active compound prepared as mentioned above, was sprayed by using a spray gun. After spraying it was placed in a green house of 28° C. and the rate of death was calculated 7 days after the spraying. Test was repeated twice.

[2] = system: larva of Spodoptera litura; assay: Test against larva of Spodoptera litura (leaf dip, sweet potato leaves); format: in vivo; conditions: 20 ppm concentration of the active component; third instar larvae; counted after 7 days; 25° C.
Method in brief: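 Sweet potato leaves were dipped in emulsified compound diluted with water, air-dried, and given to 10 third-instar larvae per dish at 25° C, with fresh leaves added on days 2 and 4. Mortality was counted after 7 days and averaged over 2 dishes.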

[3] = system: larva of Cnaphalocrocis medinalis Guenee; assay: Test against larva of Cnaphalocrocis medinalis Guenee (sprayed paddy rice foliage); format: in vivo; conditions: 20 ppm concentration of the active component; second instar larvae; counted after 7 days; 25° C.
Method in brief: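 Potted rice (Tamanishiki) sprayed with aqueous dilutions of compound at the prescribed concentration; air-dried leaf pieces placed in dishes with five 2nd-instar larvae at 25° C, fresh treated foliage added at days 2 and 4. Mortality counted at day 7, averaged over 2 dishes.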

SMILES | controlling effect, rate of death [1] [%] | controlling effect, rate of death [2] [%] | controlling effect, rate of death [3] [%] | melting point [°C]
Cc1cc(Cn2nc(C(F)(F)F)nc2C(F)(F)F)ccc1NC(=O)c1cccc(I)c1C(=O)NC(C)(C)CS(C)(=O)=O [compound 213] | 100 | 100 | 100 | –
CSCC(C)NC(=O)c1c(I)cccc1C(=O)Nc1ccc(Cn2nc(C(F)(F)F)nc2C(F)(F)F)cc1C (stereo not shown) [compound 214] | 100 | 100 | 100 | –
CSCC(C)NC(=O)c1c(I)cccc1C(=O)Nc1ccc(Cn2nc(C(F)(F)F)nc2C(F)(F)F)cc1C (stereo not shown) [compound 215] | 100 | 100 | 100 | –
Cc1cc(Cn2nc(C(F)(F)F)nc2C(F)(F)F)ccc1NC(=O)c1cccc(I)c1C(=O)NC(C)CS(C)(=O)=O (stereo not shown) [compound 218] | 100 | 100 | 100 | –
CCSCC(C)NC(=O)c1c(I)cccc1C(=O)Nc1ccc(Cn2nc(C(F)(F)F)nc2C(F)(F)F)cc1C (stereo not shown) [compound 220] | 100 | 100 | 100 | –
CCS(=O)(=O)CC(C)NC(=O)c1c(I)cccc1C(=O)Nc1ccc(Cn2nc(C(F)(F)F)nc2C(F)(F)F)cc1C (stereo not shown) [compound 222] | 100 | 100 | 100 | –
CSCC(C)NC(=O)c1c(I)cccc1C(=O)Nc1ccc(Cn2nc(C(F)(F)C(F)(F)F)nc2C(F)(F)F)cc1C (stereo not shown) [compound 226] | 100 | 100 | 100 | –
CSCC(C)(C)NC(=O)c1c(I)cccc1C(=O)Nc1ccc(C(C)n2ccc(C(F)(F)F)n2)cc1C (stereo not shown) [compound 558, N^2-(1,1-dimethyl-2-methylsulfanyl-ethyl)-3-iodo-N^1-{2-methyl-4-[1-(3-trifluoromethyl-1H-pyrazol-1-yl)-ethyl]-phenyl}-phthalamide] | – | – | – | 79 to 86
Cc1cc(C(C)n2nc(C(F)(F)F)nc2C(F)(F)F)ccc1NC(=O)c1cccc(Cl)c1C(=O)N[C@@H](C)CS(C)(=O)=O (stereo partly shown) [compound 570] | 100 | 100 | 100 | –
Cc1cc(C(C)n2nc(C(F)(F)F)nc2C(F)(F)F)ccc1NC(=O)c1cccc(I)c1C(=O)N[C@@H](C)C[S+](C)[O-] (stereo partly shown) [compound 572] | 100 | 100 | 100 | –
Cc1cc(C(C)n2nc(C(F)(F)C(F)(F)F)nc2C(F)(F)F)ccc1NC(=O)c1cccc(Cl)c1C(=O)N[C@@H](C)C[S+](C)[O-] (stereo partly shown) [compound 579] | 100 | 100 | 100 | –
Cc1cc(Cn2cc(C(F)(F)C(F)(F)F)c(C(F)(F)C(F)(F)C(F)(F)F)n2)ccc1NC(=O)c1cccc(I)c1C(=O)N[C@@H](C)C[S+](C)[O-] (stereo partly shown) [compound 920] | 100 | 100 | 100 | –

From patent US7674807B2, “Heterocycle-substituted n-phenyl-phthalamide derivatives, related compounds and their use as insecticides” (Bayer CropScience AG, priority 2004, dated 2010)
